# ChEMBL document CHEMBL1201862, “PubChem BioAssay data set” (2004)
# Activity calls are given as the source filed them.
# Columns and labels:
# [1] = cytotoxicity toward HCT116 cells – cell-based, CellTiter-Glo luminescence, IC50, dose response (AID 1117332); format: functional; conditions: HCT-116
# [2] = Reduced DLD-1 viability, concentration-response, CellTiter-Glo luminescence (AID 1117352); format: functional
# [3] = target: COUP transcription factor 2 (Homo sapiens, UniProt P24468); assay: Luminescence-based cell-based high throughput dose response assay to identify inhibitors of COUP-TFII (NR2F2).; format: functional;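 further: HEK293 cells transiently cotransfected with COUP-TFII expression vector and reporter; luciferase reporter luminescence driven by COUP-TFII from the pX2-168 reporter plasmid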
# COUP transcription factor 2, sequence (P24468 whole entry): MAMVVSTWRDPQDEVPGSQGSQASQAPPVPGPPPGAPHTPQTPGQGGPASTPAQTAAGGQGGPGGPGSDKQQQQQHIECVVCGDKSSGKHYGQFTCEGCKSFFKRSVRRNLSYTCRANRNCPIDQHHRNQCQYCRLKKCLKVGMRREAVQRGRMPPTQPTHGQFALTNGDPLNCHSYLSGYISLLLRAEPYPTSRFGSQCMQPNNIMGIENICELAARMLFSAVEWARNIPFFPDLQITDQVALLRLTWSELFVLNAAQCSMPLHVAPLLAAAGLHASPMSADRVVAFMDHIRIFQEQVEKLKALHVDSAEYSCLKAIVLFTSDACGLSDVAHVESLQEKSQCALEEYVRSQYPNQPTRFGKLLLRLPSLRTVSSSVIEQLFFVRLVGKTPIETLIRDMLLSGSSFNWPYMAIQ
# [4] = cytotoxicity toward Colo320 cells – cell-based, CellTiter-Glo luminescence, IC50, dose response (AID 1117334); format: functional; conditions: COLO 320
# [5] = cytotoxicity toward HT-29 cells – cell-based, CellTiter-Glo luminescence, IC50, dose response (AID 1117330); format: functional
# [6] = loss of viability in HepG2 cells – cell-based, CellTiter-Glo, cherry-picked, cytotoxicity control for Shn3 inhibitor project, dose response (AID 624134); format: functional
# [7] = SNU-C1 cell viability reduction, dose response, CellTiter-Glo luminescence (AID 1117323); format: functional, cell-based
# [8] = rise of 4N DNA cells, HeLa – IC50, dose response (AID 1117351); format: functional, cell-based
# [9] = reduction of Shn3 3'UTR-driven luciferase in osteoblasts – cell-based, Clone20 osteoblasts, firefly luciferase, cherry-picked, dose response (AID 624132); format: functional;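 further: firefly luciferase luminescence from reporter carrying the Shn3 3'UTR in osteoblasts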
# Galanin receptor type 3 = Galanin receptor type 3 (Homo sapiens, UniProt O60755); assay: Fluorescence-based cell-based primary high throughput dose response assay to identify antagonists of the Galanin Receptor 3 (GalR3).; format: functional
# Galanin receptor type 3, sequence (O60755 whole entry): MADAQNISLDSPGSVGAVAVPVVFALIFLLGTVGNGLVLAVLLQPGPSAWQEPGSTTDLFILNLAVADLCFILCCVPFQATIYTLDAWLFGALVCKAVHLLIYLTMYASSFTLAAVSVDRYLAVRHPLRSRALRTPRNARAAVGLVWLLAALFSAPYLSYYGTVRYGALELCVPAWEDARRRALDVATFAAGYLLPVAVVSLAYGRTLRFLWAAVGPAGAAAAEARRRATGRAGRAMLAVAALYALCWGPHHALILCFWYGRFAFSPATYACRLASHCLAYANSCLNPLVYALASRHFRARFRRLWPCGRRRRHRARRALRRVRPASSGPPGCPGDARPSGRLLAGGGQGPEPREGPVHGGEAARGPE
# [10] = non-specific 3'UTR reporter inhibition in Clone20-Shn3RL – cell-based, Renilla luciferase, cherry-picked, counter-screen for Shn3 inhibitor project, dose response (AID 624133); format: functional
# [11] = CellTiter-Glo luminescence survival assay, SW480 colon tumor line, concentration-response curve, half-maximal inhibitory concentration (AID 1117338); format: functional
# cells = format: functional, cell-based; conditions: HEK-CNG
# [12] = rise of 2N DNA cells, HeLa – IC50, dose response (AID 1117349); format: functional, cell-based
# [13] = rescue of ΔF508 CFTR function, airway epithelium – human bronchial epithelial cells, plate reader, cherry-pick, two tests, dose response (AID 743267); format: functional, cell-based
# [14] = target: Broad substrate specificity ATP-binding cassette transporter ABCG2 (Homo sapiens, UniProt Q9UNQ0); assay: blockers of JC-1 export by ABCG2 – Ig-MXP3 cells, flow cytometry, dose response (AID 1690); format: functional
# Broad substrate specificity ATP-binding cassette transporter ABCG2, sequence (Q9UNQ0 whole entry): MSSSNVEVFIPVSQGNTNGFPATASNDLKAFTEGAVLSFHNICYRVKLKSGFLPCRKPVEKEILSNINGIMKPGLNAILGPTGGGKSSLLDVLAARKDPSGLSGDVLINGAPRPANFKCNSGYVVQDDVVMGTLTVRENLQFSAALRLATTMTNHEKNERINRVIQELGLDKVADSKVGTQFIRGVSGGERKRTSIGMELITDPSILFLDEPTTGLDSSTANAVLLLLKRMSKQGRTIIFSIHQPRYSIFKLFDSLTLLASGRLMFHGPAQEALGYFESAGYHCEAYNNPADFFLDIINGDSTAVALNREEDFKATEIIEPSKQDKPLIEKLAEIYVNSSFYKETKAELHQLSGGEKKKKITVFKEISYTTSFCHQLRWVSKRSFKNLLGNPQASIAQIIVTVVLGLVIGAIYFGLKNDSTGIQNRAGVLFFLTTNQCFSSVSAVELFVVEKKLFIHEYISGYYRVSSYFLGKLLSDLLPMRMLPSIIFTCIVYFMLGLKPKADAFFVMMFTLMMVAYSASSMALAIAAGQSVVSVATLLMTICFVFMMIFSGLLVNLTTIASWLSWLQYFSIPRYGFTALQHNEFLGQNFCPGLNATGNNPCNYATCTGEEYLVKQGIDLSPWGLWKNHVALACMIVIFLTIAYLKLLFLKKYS
# HEK293 [15] = assay: optical interference in Abeta FP readout, dose response, artefact control for IDE activator project, biochemical, fluorescence polarization (AID 588442); format: functional, cell-based; conditions: Homo sapiens
# Beta-lactamase [16] = target: Beta-lactamase (Pseudomonas aeruginosa, UniProt Q79MP6);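 further: biochemical dose-response test of metallo-beta-lactamase enzyme inhibition, read out by epi-absorbance; purified recombinant IMP-1 metallo-beta-lactamase with nitrocefin as substrate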
# Beta-lactamase (Pseudomonas aeruginosa, UniProt Q79MP6), sequence (Q79MP6 whole entry): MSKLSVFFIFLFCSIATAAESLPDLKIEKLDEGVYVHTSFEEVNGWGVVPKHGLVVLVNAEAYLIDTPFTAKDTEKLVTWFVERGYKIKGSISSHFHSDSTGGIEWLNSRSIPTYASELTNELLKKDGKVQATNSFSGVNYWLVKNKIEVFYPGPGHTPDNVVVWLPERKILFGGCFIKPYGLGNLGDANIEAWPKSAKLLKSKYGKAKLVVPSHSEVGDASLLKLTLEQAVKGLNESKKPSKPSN
# Insulin-degrading enzyme [17] = target: T1, Insulin-degrading enzyme (Homo sapiens, UniProt P14735); assay: cellular IDE activation of Abeta substrate cleavage – fluorescence polarization, HEK cells, dose response (AID 588439); format: functional, cell-based
# T1 sequence (P14735 whole entry): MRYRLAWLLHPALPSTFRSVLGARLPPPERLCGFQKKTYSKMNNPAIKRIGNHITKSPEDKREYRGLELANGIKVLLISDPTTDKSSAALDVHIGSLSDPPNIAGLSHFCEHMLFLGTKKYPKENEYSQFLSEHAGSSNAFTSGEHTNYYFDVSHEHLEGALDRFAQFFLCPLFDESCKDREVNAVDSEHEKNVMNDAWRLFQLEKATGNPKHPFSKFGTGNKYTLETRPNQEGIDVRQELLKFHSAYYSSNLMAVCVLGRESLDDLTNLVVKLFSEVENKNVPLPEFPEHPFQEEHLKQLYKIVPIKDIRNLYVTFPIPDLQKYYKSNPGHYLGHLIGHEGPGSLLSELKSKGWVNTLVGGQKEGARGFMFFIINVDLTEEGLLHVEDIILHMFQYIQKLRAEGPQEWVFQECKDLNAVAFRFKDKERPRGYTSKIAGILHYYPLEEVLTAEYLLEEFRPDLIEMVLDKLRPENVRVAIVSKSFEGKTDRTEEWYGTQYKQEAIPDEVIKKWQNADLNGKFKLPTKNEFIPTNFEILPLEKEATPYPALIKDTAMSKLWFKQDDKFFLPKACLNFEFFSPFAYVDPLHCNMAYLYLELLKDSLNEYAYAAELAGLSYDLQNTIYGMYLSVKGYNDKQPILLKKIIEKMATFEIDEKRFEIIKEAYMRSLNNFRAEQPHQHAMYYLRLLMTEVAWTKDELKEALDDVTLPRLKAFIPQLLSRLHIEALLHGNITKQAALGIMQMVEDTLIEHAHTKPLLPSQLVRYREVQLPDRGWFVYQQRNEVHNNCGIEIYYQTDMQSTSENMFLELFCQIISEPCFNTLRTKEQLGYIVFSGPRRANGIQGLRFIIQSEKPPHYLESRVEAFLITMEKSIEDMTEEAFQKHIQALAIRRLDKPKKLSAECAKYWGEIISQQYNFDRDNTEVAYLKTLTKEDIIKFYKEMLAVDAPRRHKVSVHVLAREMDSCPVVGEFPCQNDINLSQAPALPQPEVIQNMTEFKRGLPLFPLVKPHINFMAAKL
# Insulin-degrading enzyme [18] = target: T1, Insulin-degrading enzyme; assay: recombinant IDE activation, cell-free – biochemical, fluorescence polarization, counter-screen for IDE activator project, dose response (AID 588681)
# HEK293 [19] = assay: membrane integrity loss in HEK cells – cell-based, fluorescence, cytotoxicity control for IDE activator project, dose response (AID 588440); format: functional; conditions: Homo sapiens;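 further: cytotoxicity by LDH release measuring loss of membrane integrity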
# Beta-lactamase [20] = target: Beta-lactamase (Salmonella choleraesuis (strain SC-B67), UniProt Q5J463)
# Beta-lactamase (Salmonella choleraesuis (strain SC-B67), UniProt Q5J463), sequence (Q5J463 whole entry, the tested form may be a part): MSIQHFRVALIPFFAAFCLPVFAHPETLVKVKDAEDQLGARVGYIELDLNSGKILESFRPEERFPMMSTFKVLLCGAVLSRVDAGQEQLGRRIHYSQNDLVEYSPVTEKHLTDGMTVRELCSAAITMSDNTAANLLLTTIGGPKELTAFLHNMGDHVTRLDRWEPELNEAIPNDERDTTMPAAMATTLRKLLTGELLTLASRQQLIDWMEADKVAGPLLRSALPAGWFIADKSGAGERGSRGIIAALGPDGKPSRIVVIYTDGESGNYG
# [21] = target: Arf-GAP with SH3 domain, ANK repeat and PH domain-containing protein 1 (Homo sapiens, UniProt Q9ULH1); format: functional;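 further: biochemical fluorescence polarization dose–response screen measuring inhibition of ASAP1; ASAP1 GAP domain stimulating GTP hydrolysis by truncated human ARF1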
# Arf-GAP with SH3 domain, ANK repeat and PH domain-containing protein 1, sequence (Q9ULH1 whole entry, the tested form may be a part): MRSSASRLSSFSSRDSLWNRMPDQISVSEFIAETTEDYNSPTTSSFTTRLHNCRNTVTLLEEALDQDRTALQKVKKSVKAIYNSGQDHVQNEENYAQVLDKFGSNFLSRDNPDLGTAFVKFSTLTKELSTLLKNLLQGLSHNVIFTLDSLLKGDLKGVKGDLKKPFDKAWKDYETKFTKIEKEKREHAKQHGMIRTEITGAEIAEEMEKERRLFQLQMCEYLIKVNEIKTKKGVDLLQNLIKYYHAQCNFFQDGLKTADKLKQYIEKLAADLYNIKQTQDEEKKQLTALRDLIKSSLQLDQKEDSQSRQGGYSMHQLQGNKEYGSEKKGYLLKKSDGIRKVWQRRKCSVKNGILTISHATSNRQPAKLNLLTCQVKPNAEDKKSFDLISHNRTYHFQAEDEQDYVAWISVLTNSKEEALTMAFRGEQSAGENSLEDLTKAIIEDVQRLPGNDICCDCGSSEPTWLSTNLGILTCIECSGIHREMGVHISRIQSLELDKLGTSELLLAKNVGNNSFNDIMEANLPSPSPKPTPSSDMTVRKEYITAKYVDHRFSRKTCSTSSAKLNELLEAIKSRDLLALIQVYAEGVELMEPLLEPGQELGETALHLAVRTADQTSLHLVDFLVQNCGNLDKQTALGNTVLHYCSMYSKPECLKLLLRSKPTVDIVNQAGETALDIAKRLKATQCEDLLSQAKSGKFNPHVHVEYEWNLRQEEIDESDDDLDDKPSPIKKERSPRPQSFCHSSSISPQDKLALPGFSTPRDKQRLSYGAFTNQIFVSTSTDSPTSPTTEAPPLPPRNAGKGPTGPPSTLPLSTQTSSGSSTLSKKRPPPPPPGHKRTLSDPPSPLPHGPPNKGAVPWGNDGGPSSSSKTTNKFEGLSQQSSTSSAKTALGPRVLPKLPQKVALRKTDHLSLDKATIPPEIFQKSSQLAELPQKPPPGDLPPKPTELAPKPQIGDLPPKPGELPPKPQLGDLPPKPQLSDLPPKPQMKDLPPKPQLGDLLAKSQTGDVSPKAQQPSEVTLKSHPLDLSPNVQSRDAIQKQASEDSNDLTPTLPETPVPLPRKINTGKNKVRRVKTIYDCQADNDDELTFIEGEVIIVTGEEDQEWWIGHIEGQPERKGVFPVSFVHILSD
# [22] = target: T2, RNA-binding protein pos-1 (Caenorhabditis elegans, UniProt G5EF15); assay: disruptors of C. elegans POS-1 RNA interaction – biochemical, fluorescence polarization, dose response (AID 1964);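 further: purified POS-1 fused to maltose binding protein made in E. coli; potency of compounds blocking POS-1 binding to fluorescent RNA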
# T2 sequence (G5EF15 whole entry): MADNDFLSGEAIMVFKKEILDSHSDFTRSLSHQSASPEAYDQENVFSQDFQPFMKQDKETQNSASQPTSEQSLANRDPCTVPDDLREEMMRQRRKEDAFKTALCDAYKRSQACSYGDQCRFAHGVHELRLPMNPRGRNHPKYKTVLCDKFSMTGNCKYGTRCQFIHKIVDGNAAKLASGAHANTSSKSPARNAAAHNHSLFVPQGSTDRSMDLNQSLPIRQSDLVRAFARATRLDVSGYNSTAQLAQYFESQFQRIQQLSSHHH
# [23] = target: T3, Zinc finger protein mex-5 (Caenorhabditis elegans, UniProt Q9XUB2); assay: potency of MEX-5 RNA-binding blockers – biochemical, C. elegans, fluorescence polarization, dose response (AID 1960)
# T3 sequence (Q9XUB2 whole entry): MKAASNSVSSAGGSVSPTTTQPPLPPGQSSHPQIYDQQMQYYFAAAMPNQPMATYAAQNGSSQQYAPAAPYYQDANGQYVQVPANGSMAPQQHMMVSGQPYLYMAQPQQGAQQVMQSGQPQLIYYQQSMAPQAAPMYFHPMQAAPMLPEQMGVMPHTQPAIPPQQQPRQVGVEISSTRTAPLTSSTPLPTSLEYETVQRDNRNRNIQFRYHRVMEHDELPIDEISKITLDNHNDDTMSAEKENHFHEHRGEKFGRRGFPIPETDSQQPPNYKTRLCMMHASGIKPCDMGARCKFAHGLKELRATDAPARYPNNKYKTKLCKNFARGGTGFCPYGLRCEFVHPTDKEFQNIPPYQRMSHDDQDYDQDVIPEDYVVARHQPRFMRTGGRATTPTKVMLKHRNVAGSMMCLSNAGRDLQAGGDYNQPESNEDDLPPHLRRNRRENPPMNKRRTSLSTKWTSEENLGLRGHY
# [24] = target: 5-hydroxytryptamine receptor 2A (Mus musculus, UniProt P35363); format: functional, cell-based;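 further: CHO-K1 cells with tagged receptor and beta-arrestin; agonist potency measured as compound-induced activation of the receptor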
# 5-hydroxytryptamine receptor 2A, sequence (P35363 whole entry): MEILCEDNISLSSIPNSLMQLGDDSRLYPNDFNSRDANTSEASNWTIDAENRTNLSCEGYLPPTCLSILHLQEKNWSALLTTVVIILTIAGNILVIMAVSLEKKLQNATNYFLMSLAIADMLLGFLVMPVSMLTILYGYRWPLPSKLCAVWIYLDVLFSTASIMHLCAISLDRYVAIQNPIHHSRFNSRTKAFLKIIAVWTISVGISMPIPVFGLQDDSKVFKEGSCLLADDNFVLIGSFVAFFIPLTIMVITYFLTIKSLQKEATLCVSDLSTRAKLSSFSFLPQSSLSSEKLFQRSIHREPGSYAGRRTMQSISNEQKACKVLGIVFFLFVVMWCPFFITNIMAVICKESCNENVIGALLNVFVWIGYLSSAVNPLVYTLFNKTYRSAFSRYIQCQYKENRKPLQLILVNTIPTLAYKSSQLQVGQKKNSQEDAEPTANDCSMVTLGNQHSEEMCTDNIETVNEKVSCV
# Mu-type opioid receptor = Mu-type opioid receptor (Homo sapiens, UniProt P35372); format: functional, cell-based;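 further: U2OS cells with beta-arrestin recruitment to OPRM1 by beta-gal complementation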
# Mu-type opioid receptor, sequence (P35372 whole entry): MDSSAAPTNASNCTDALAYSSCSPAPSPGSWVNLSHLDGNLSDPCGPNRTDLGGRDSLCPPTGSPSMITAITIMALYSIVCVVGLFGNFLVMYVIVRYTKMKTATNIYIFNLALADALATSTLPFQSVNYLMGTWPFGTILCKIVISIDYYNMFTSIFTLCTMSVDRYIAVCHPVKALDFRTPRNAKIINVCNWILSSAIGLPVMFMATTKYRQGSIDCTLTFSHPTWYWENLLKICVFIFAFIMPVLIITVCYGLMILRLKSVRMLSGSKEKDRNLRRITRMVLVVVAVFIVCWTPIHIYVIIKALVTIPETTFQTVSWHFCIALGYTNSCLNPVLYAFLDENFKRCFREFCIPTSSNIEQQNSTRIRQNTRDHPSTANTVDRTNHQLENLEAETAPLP
# Vero = assay: viability loss in Vero cells – cell-based, plate reader, cherry-pick samples, cytotoxicity control, dose response (AID 687020); format: functional; conditions: Chlorocebus sabaeus
smiles,measurement,setting,value
Cc1nc2ccccc2n1Cc1ccc(Cl)cc1 [CHLORMIDAZOLE],IC50,[1],1.22 µM (active)
same,IC50,[2],> 20 µM (inactive)
same,IC50,[3],10.6 µM (inactive)
same,IC50,[4],15.2 µM (inactive)
same,IC50,[5],> 20 µM (inactive)
same,AC50,[6],2.79 µM (active)
same,IC50,[7],> 20 µM (inactive)
same,IC50,[8],> 10 µM (inactive)
same,AC50,[9],1.46 µM (active)
same,IC50,Galanin receptor type 3,0.203 µM (active)
same,AC50,[10],28.2 µM (active)
same,IC50,[11],5.33 µM (inactive)
same,EC50,cells,> 29.9 µM (inactive)
same,IC50,[12],> 10 µM (inactive)
COc1ccccc1NS(=O)(=O)c1cc(NN=C(C(C)=O)C(=O)Nc2ccc(Cl)cc2)ccc1C,AC50,[13],36.6 µM (active)
CCCCN(C)C1=CC2=CC(=C(C#N)C#N)CCC2CC1 (stereo not drawn),EC50,[14],4.42 µM (active)
same,EC50,HEK293 [15],1.55 µM (active)
same,IC50,Beta-lactamase [16],5.07 µM (active)
same,EC50,Insulin-degrading enzyme [17],> 54.7 µM (inactive)
same,EC50,Insulin-degrading enzyme [18],> 54.7 µM (inactive)
same,IC50,HEK293 [19],> 89.2 µM (inactive)
same,IC50,Beta-lactamase [20],1.47 µM (active)
Cc1cc(N/C=C2/C(=O)N(c3ccc4c(c3)OCO4)C(=O)c3ccccc32)ccn1,IC50,[21],22.1 µM (inactive)
same,EC50,[22],27.5 µM (active)
same,EC50,[23],188 µM (inconclusive)
O=C(c1ccco1)N1CCN(CC2CC3C=CC2C3)CC1 (stereo not drawn),EC50,[24],2.96 µM (active)
same,EC50,Mu-type opioid receptor,92.4 µM (inactive)
CC1CCOC(c2coc3ccccc3c2=O)O1 (stereo not drawn),AC50,Vero,24.2 µM (active)
